Measured values: ChEMBL document CHEMBL1148930, “DNA polymerase beta lyase inhibitors from Maytenus putterlickoides” (J Nat Prod, 2004)
pIC50: −log10 of the molar value.

What was measured:
[1] = target: DNA polymerase beta (Rattus norvegicus, UniProt P06766); test: Inhibition of lyase activity of rat DNA polymerase beta after 30 mins by deoxyribose phosphate excision assay
[2] = system: A549; test: Cytotoxicity against human A549 cells assessed as cell viability at 200 uM after 48 hrs by MTT assay relative to control; type: functional; conditions: A549, 48 h, read-out: Activity
[3] = system: A549; test: Cytotoxicity against human A549 cells assessed as cell viability at 62.5 uM after 48 hrs by MTT assay relative to control; type: functional; conditions: A549, 48 h, read-out: Activity
[4] = system: A549; test: Potentiation of methyl methanesulfonate-induced cytotoxicity against human A549 cells assessed as cell viability after 48 hrs by MTT assay relative to control; type: functional

| pIC50 [1] | SMILES | viability at 200 µM [2] | viability at 62.5 µM [3] | Activity [4] |
| --- | --- | --- | --- | --- |
| 4.20 | C=C(COC(=O)c1ccc(O)cc1)[C@@H]1CC[C@]2(C)CC[C@]3(C)[C@H](C[C@@H](O)[C@@H]4[C@@]5(C)CCC(=O)C(C)(C)[C@@H]5CC[C@]43C)[C@@H]12 | 100% | 100% | 100% |
| 4.73 | Oc1cc(O)c2c(c1)O[C@H](c1ccc(O)c(O)c1)[C@H](O)C2 [(-)-EPICATECHIN] | 100% | 100% | 86.6% |
